Values after ≈ are worked out from the molar mass of the structure shown. Where two headings read alike, the source gives them in different places. Blank lines part the entries; values can stand above or below the compound they belong to.
Tests used:
[1] = system: B16-F10 cells; test: in vitro cytotoxicity against B16-F10 murine melanoma cells (neutral red, 72 hours); format: cell-based; settings: for IC50: Mus musculus, read-out: Cytotoxicity vs B16 IC50
Experimental: (§1) BU-3129T (3,7-dihydroxytropolone) and its analogs were tested for in vitro cytotoxicity against logarithmically growing murine melanoma tumor cells in liquid culture. B16-F10 cells (4×10^4 cells) in the enriched MEM (Minimum essential medium (Eagle's)) containing test material solution were planted into wells of 96-well microtiter plates and incubated at 37° C., with 5% CO2 under high humidity for 72 hours. After staining with neutral red, cytotoxicity of test material was determined colorimetrically. The inhibitory effects on macromolecule biosynthesis were examined in cultured L1210 leukemia cells. L1210 cells (5×10^5 cells) were exposed to radioactive precursors (^3 H-thymidine, ^14 C-uridine and ^3 H-leucine) for 60 min after the treatment with test material for 15 min. The incorporated radioactivities into acid-insoluble fractions were measured by using a liquid scintillation counter. The in vivo antitumor activity of BU-3129T was determined in male BDF1 mice against leukemia P388 and melanoma B16. Leukemia P388 and melanoma B 16 were inoculated by the intraperitoneal injection at 10^6 cells and 0.5 ml of a 10% tumor brei per mouse, respectively. Test material was administered to mice intraperitoneally once daily through 1 to 9 days after tumor implantation. Tropolone and mitomycin C were comparatively tested in the experiments.

[2] = system: L1210 leukemia cells; test: inhibition of macromolecule biosynthesis in cultured L1210 leukemia cells (incorporation of radioactive precursors); format: cell-based; settings: Mus musculus
Experimental: as §1

[3] = solubility; format: physicochemical
[4] = system: leukemia P388; format: in vivo, mice; settings: for MST / T/C: qd 1→9, ip
Experimental: as §1

[5] = system: melanoma B16; test: in vivo antitumor activity against melanoma B16 in male BDF1 mice; settings: for antitumor activity against melanoma B16: in words, mice
Experimental: as §1

[6] = in words; Kirst paper; cited from earlier work
[7] = system: mammalian malignant tumors; test: inhibitory action against mammalian malignant tumors (summary statement); settings: in words
Experimental: as §1

[8] = L1210, DNA, 3H-thymidine, 60 min after 15 min treatment, read-out: Inhibition of macromolecule biosynthesis vs L1210 IC50, DNA
[9] = L1210, Protein, 3H-leucine, 60 min after 15 min treatment, read-out: Inhibition of macromolecule biosynthesis vs L1210 IC50, Protein
[10] = L1210, RNA, 14C-uridine, 60 min after 15 min treatment, read-out: Inhibition of macromolecule biosynthesis vs L1210 IC50, RNA
[11] = Exp. 1, 0.16 mg/kg/day, qd 1→9, ip
[12] = Exp. 1, 2.5 mg/kg/day, qd 1→9, ip
[13] = Exp. 1, 0.1 mg/kg/day, qd 1→9, ip
[14] = Exp. 1, 0.3 mg/kg/day, qd 1→9, ip
[15] = Exp. 1, 1.0 mg/kg/day, qd 1→9, ip
[16] = Exp. 2, 1.0 mg/kg/day, qd 1→9, ip
[17] = Exp. 2, 3.0 mg/kg/day, qd 1→9, ip
[18] = Exp. 2, 10 mg/kg/day, qd 1→9, ip
[19] = Exp. 2, 30 mg/kg/day, qd 1→9, ip

SMILES: O=c1c(O)ccccc1O [7-hydroxytropolone]
potency order in the in vitro cytotoxicity test [1]: follow by 7-hydroxytropolone, 4,7-dihydroxytropolone, tropolone and 5-hydroxytropolone
IC50 ([1]; B16-F10, 72 h): 0.3 µg/mL (≈ 2.17 µM)
IC50 [2, 8]: 21 µg/mL (≈ 152 µM)
IC50 [2, 9]: > 100 µg/mL
IC50 [2, 10]: 41 µg/mL (≈ 297 µM)

SMILES: O=c1c(O)cccc(O)c1O [BU-3129T, 3,7-dihydroxytropolone]
solubility ([3]; dimethylformamide): readily soluble
solubility ([3]; dimethylsulfoxide): readily soluble
solubility ([3]; ethanol): slightly soluble
solubility ([3]; methanol): slightly soluble
solubility ([3]; other organic solvents): practically insoluble
solubility ([3]; water): slightly soluble
MST ([4]; 0.16 mg/kg/day): 11.0 days
T/C ([4]; 0.16 mg/kg/day): 105%
MST ([4]; 0.31 mg/kg/day): 11.0 days
T/C ([4]; 0.31 mg/kg/day): 105%
MST ([4]; 0.63 mg/kg/day): 10.0 days
T/C ([4]; 0.63 mg/kg/day): 95%
MST ([4]; 1.3 mg/kg/day): 11.0 days
T/C ([4]; 1.3 mg/kg/day): 105%
MST ([4]; 2.5 mg/kg/day): 10.0 days
T/C ([4]; 2.5 mg/kg/day): 95%
antitumor activity against leukemia P388 ([4]; in words, mice, ip): no activity
MST [5, 11]: 16.0 days
T/C [5, 11]: 100%
MST ([5]; Exp. 1, 0.31 mg/kg/day, qd 1→9, ip): 18.0 days
MST ([5]; Exp. 1, 0.63 mg/kg/day, qd 1→9, ip): 23.0 days
MST ([5]; Exp. 1, 1.3 mg/kg/day, qd 1→9, ip): 29.0 days
MST [5, 12]: 12.0 days
T/C [5, 12]: 75%
toxicity ([5]; Exp. 1, 5.0 mg/kg/day, qd 1→9, ip): tox
antitumor activity against melanoma B16 ([5]; ip): significant antitumor activity
Average weight change on day 5 ([5]; mouse, in vivo, ip, 0.16 mg/kg/day): +0.4 g
Average weight change on day 5 ([5]; mouse, in vivo, ip, 0.31 mg/kg/day): +1.2 g
Average weight change on day 5 ([5]; mouse, in vivo, ip, 0.63 mg/kg/day): +1.0 g
Average weight change on day 5 ([5]; mouse, in vivo, ip, 1.3 mg/kg/day): +0.4 g
Average weight change on day 5 ([5]; mouse, in vivo, ip, 2.5 mg/kg/day): -0.8 g
antimicrobial activity [6]: possesses antimicrobial activity
inhibitory action against mammalian malignant tumors [7]: marked inhibitory action
potency order in the in vitro cytotoxicity test [1]: most potent
IC50 ([1]; B16-F10, 72 h): 0.04 µg/mL (≈ 0.26 µM)
times more cytotoxic against B16 melanoma than tropolone and the hydroxytropolones compared ([1]; mouse, 4320 min): 10-40 times
IC50 ([2]; L1210, DNA, RNA and protein together, non-specific, read-out: inhibitory effects on DNA, RNA and protein biosynthesis, IC50 values): 9 to 14 µg/mL (≈ 58.4 to 90.8 µM)
IC50 [2, 8]: 9.4 µg/mL (≈ 61 µM)
IC50 [2, 9]: 11 µg/mL (≈ 71.4 µM)
IC50 [2, 10]: 14 µg/mL (≈ 90.8 µM)

SMILES: CO[C@@]12[C@H](COC(N)=O)C3=C(C(=O)C(C)=C(N)C3=O)N1C[C@@H]1N[C@@H]12 [Mitomycin C]
MST ([4]; 0.08 mg/kg/day): 12.0 days
T/C ([4]; 0.08 mg/kg/day): 114%
MST ([4]; 0.16 mg/kg/day): 15.0 days
MST ([4]; 0.31 mg/kg/day): 16.0 days
MST ([4]; 1.3 mg/kg/day): 21.0 days
Average weight change on day 5 [5, 13]: +1.0 g
MST [5, 13]: 16.0 days
T/C [5, 13]: 100%
Average weight change on day 5 [5, 14]: +0.4 g
MST [5, 14]: 22.0 days
Average weight change on day 5 [5, 15]: +0.6 g
MST [5, 15]: 27.0 days
IC50 ([1]; B16-F10, 72 h): 2 µg/mL (≈ 5.98 µM)

SMILES: O=c1cccccc1O [Tropolone]
Average weight change on day 5 [5, 16]: +2.3 g
MST [5, 16]: 19.0 days
T/C [5, 16]: 112%
Average weight change on day 5 [5, 17]: +2.5 g
MST [5, 17]: 17.5 days
T/C [5, 17]: 103%
Average weight change on day 5 [5, 18]: +3.3 g
MST [5, 18]: 18.0 days
T/C [5, 18]: 106%
Average weight change on day 5 [5, 19]: +2.0 g
MST [5, 19]: 18.0 days
T/C [5, 19]: 106%
antitumor activity against melanoma B16 ([5]; ip): did not show any activity
IC50 ([1]; B16-F10 cells, 72 hours): 1.8 µg/mL (≈ 14.7 µM)
potency order in the in vitro cytotoxicity test ([1]; in words): follow by 7-hydroxytropolone, 4,7-dihydroxytropolone, tropolone and 5-hydroxytropolone
IC50 ([2]; L1210, read-out: Inhibition of macromolecule biosynthesis vs L1210 IC50, DNA): 2.2 µg/mL (≈ 18 µM)
IC50 ([2]; L1210, read-out: Inhibition of macromolecule biosynthesis vs L1210 IC50, Protein): 9.9 µg/mL (≈ 81.1 µM)
IC50 ([2]; L1210, read-out: Inhibition of macromolecule biosynthesis vs L1210 IC50, RNA): 20 µg/mL (≈ 164 µM)

Second part, led by results:

IC50 [2, 8]: 39 µg/mL (≈ 253 µM)
IC50 [2, 9]: > 100 µg/mL
IC50 [2, 10]: > 100 µg/mL
SMILES: O=c1c(O)ccc(O)cc1O [4,7-dihydroxytropolone]
potency order in the in vitro cytotoxicity test [1]: follow by 7-hydroxytropolone, 4,7-dihydroxytropolone, tropolone and 5-hydroxytropolone
IC50 ([1]; B16-F10, 72 h): 0.38 µg/mL (≈ 2.47 µM)

IC50 [2, 8]: > 100 µg/mL
IC50 [2, 9]: 100 µg/mL (≈ 724 µM)
IC50 [2, 10]: > 100 µg/mL
SMILES: O=c1ccc(O)ccc1O [5-hydroxytropolone]
potency order in the in vitro cytotoxicity test [1]: follow by 7-hydroxytropolone, 4,7-dihydroxytropolone, tropolone and 5-hydroxytropolone
IC50 ([1]; B16-F10, 72 h): 2.4 µg/mL (≈ 17.4 µM)

Reference: US4833079A, “Process for producing 3,7-dihydroxytropolone and antitumor use thereof” (Bristol-Myers Company, priority 1986, dated 1989)
